# Results as given in article PMC6278306, “Anti-Leishmanial and Cytotoxic Activities of a Series of Maleimides: Synthesis, Biological Evaluation and Structure-Activity Relationship” (Molecules, 2018).
# Experiments:
# [1] = test system: β-(1,3)-glucan synthase; design: method as in PMID 21612375; conditions: cited from earlier work
# [2] = Cytotoxicity assay (Alamar Blue); format: cell-based; conditions: human, concentrations 10–0.0032 μg/mL
# Procedure: In order to verify the safety of maleimides, they were tested for cytotoxicity against human monocytic leukemia cells (THP1) 50% cytotoxic concentration values represent the concentration of compound required to kill 50% of the THP1 cells were calculated (CC50). The selectivity indices were calculated using the formula SI = CC50 /IC50, against promastigotes. […] SIs of 16 and 42 were greater than 781.3.
# (§1) In vitro anti-leishmanial assay. The antileishmanial activity of the compounds was tested in vitro against a culture of L. donovani promastigotes. The promastigotes were grown in RPMI 1640 medium supplemented with 10% fetal calf serum (Gibco Chem. Co., 81 Wyman Street, Waltham, MA, USA) at 26 °C. A three day old culture was diluted to 5 × 10^5 promastigotes/mL. Drug dilutions were prepared directly in cell suspension in 96-well plates. Plates were incubated at 26 °C for 48 h and the growth of Leishmania promastigotes was determined by the Alamar blue assay as described earlier. Standard fluorescence was measured on a Fluostar Galaxy plate reader (BMG Lab Technologies, Offenburg, Germany) at an excitation wavelength of 544 nm and an emission wavelength of 590 nm. Pentamidine and amphotericin B were used as the standard anti-leishmanial agents. IC50 values were computed from dose-response curves as above. The tested compounds were diluted with six concentrations (from 40–0.0128 μg/mL). Cytotoxicity assay. The in vitro cytotoxicity was determined against human monocytic leukemia cells (THP1) with a simple colorimetric method using the dye Alamar Blue. […] Cells were grown to a density between 0.2 and 1 × 10^6 cells/mL. Culture medium was replaced every 2–3 days with fresh growth medium. DMSO was used as the solvent, and the test compounds was with six concentrations from 10–0.0032 μg/mL.
# The in vitro cytotoxicity was determined against human monocytic leukemia cells (THP1) with a simple colorimetric method using the dye Alamar Blue, which was reported in the reference (Mikus, J.; Steverding, D. A simple colorimetric method to screen drug cytotoxicity against Leishmania, using the dye Alamar Blue. Parasitol Int. 2000, 48(3),265-269.). THP1 suspensions were grown in RPMI-1640 medium supplemented with 10% FBS, 2 mM glutamine, 50 μg/mL […]
# were grown to a density between 0.2 and 1×10^6 cells/mL. Culture medium was replaced every 2-3 days with fresh growth medium. DMSO was used as the solvent, and the test compounds was with six concentrations from 10-0.0032μg/mL.
# [3] = test system: L. donovani promastigotes; assay: In vitro anti-leishmanial assay (Alamar blue, promastigotes); format: cell-based, Leishmania donovani; conditions: for IC50: Leishmania donovani, 48 h, read-out: L. donvani IC50; for SI: SI = CC50 /IC50, THP1 vs promastigotes; for anti-leishmanial activity, times better than amphotericin B: L. donovani, relative to amphotericin B
# Procedure: Anti-leishmanial activity in vitro was described in terms of IC50, which is the effective concentration (μg/mL) required to achieve 50% growth inhibition, with promastigotes in their exponential growth phase.
# as §1, with “Pentamidine and amphotericin B were used as the standard anti-leishmanial agents.” left out
# [4] = THP1 cells (human monocytic leukemia)
Compound,"IC50 β-(1,3)-glucan synthase [1]","CC50 [2, 4]",IC50 [3],SI [3],CC50 ([2]; THP1 cells),melting point,"anti-leishmanial activity, times better than amphotericin B [3]"
CCN1C(=O)C=CC1=O [N-ethyl-maleimide],8.5 ± 1.1 µg/mL,–,–,–,–,–,–
O=C1C=CC(=O)N1CCCc1ccccc1 [Compound 8],–,8.25 µg/mL,0.11 µg/mL,75.0,–,–,–
O=C1C(Cl)=C(Cl)C(=O)N1CCCc1ccccc1 [Compound 33],–,> 10 µg/mL,0.4 µg/mL,>25.0,–,–,–
CCCCCCCCN1C(=O)C=C(C)C1=O [Compound 20],–,8.1 µg/mL,0.96 µg/mL,8.4,–,–,–
Cc1cccc(C)c1N1C(=O)C(Cl)=C(Cl)C1=O [Compound 38],–,–,0.45 µg/mL,>22.2,> 10 µg/mL,200.8 to 201.6 °C,–
O=C1C(Cl)=C(Cl)C(=O)N1c1ccccc1 [Compound 34],–,–,0.76 µg/mL,>13.2,> 10 µg/mL,–,–
CCCCN1C(=O)C=CC1=O [Compound 1],–,> 10 µg/mL,0.08 µg/mL,>125.0,–,–,–
O=C1C=CC(=O)N1C1CCCCC1 [Compound 17],–,> 10 µg/mL,0.26 µg/mL,>38.5,–,–,–
CCc1cccc(CC)c1N1C(=O)C=CC1=O [Compound 14],–,3.89 µg/mL,0.08 µg/mL,48.6,–,192.8 to 194.1 °C,–
CCc1cccc(CC)c1N1C(=O)C(Cl)=C(Cl)C1=O [Compound 39],–,–,0.13 µg/mL,>76.9,> 10 µg/mL,204.1 to 205.8 °C,–
CCCCCCN1C(=O)C=CC1=O [Compound 3],–,> 10 µg/mL,0.11 µg/mL,>90.9,–,–,–
O=C1C=CC(=O)N1Cc1ccccc1 [Compound 6],–,4.56 µg/mL,0.08 µg/mL,57.0,–,–,–
Cc1ccc(N2C(=O)C(Cl)=C(Cl)C2=O)cc1 [Compound 35],–,–,0.66 µg/mL,>15.2,> 10 µg/mL,–,–
Cc1c(N2C(=O)C(Cl)=C(Cl)C2=O)cccc1[N+](=O)[O-] [Compound 42],–,> 10 µg/mL,< 0.0128 µg/mL,–,–,168.8 to 169.9 °C,10
CC(C)CN1C(=O)C(Cl)=C(Cl)C1=O [Compound 44],–,> 10 µg/mL,0.43 µg/mL,>23.3,–,63.8 to 64.5 °C,–
O=C1C=CC(=O)N1c1ccccc1 [Compound 9],–,> 10 µg/mL,0.24 µg/mL,>41.7,–,–,–
CCCCCCCCN1C(=O)C(Cl)=C(Cl)C1=O [Compound 31],–,–,0.48 µg/mL,>20.8,> 10 µg/mL,–,–
CC1=CC(=O)N(C2CCCCC2)C1=O [Compound 27],–,7.15 µg/mL,0.89 µg/mL,8.0,–,65.6 to 66.5 °C,–
Cc1ccc(Cl)cc1N1C(=O)C(Cl)=C(Cl)C1=O [Compound 41],–,–,0.11 µg/mL,>90.9,> 10 µg/mL,160.1 to 161.4 °C,–
Cc1ccc(N2C(=O)C=CC2=O)cc1 [Compound 10],–,> 10 µg/mL,0.15 µg/mL,>66.7,–,–,–
CC1=CC(=O)N(CCc2ccccc2)C1=O [Compound 22],–,5.99 µg/mL,1.22 µg/mL,4.9,–,–,–
CCCCCCN1C(=O)C=C(C)C1=O [Compound 19],–,5.89 µg/mL,0.81 µg/mL,7.3,–,–,–
O=C1C=CC(=O)N1c1ccc(Cl)cc1 [Compound 12],–,> 10 µg/mL,1.02 µg/mL,>9.8,–,–,–
CCCCN1C(=O)C(Cl)=C(Cl)C1=O [Compound 28],–,–,0.47 µg/mL,>21.3,> 10 µg/mL,–,–

Compound,"IC50 β-(1,3)-glucan synthase [1]","CC50 [2, 4]",IC50 [3],SI [3],CC50 ([2]; THP1 cells),melting point,"anti-leishmanial activity, times better than amphotericin B [3]"
"N=C(N)c1ccc(OCCCCCOc2ccc(C(=N)N)cc2)cc1 [pentamidine, reference compound]",–,–,0.64 µg/mL,–,–,–,–
CCCCCCN1C(=O)C(Cl)=C(Cl)C1=O [Compound 30],–,–,0.49 µg/mL,>20.4,> 10 µg/mL,–,–
CCCCCCCCN1C(=O)C=CC1=O [Compound 4],–,> 10 µg/mL,0.27 µg/mL,>37.0,–,–,–
CCCCCCCCCCCCN1C(=O)C=CC1=O [Compound 5],–,> 10 µg/mL,2.21 µg/mL,>4.5,–,–,–
CCc1cccc(CC)c1N1C(=O)C=C(C)C1=O [Compound 24],–,4.39 µg/mL,0.55 µg/mL,8.0,–,195.8 to 197.3 °C,–
CC1=CC(=O)N(CC(C)C)C1=O [Compound 26],–,> 10 µg/mL,0.64 µg/mL,>15.6,–,–,–
O=C1C(Cl)=C(Cl)C(=O)N1C1CCCCC1 [Compound 45],–,–,0.26 µg/mL,>38.5,> 10 µg/mL,67.2 to 68.5 °C,–
CC1=CC(=O)N(Cc2ccccc2)C1=O [Compound 21],–,7.94 µg/mL,0.58 µg/mL,13.7,–,–,–
O=C1C(Cl)=C(Cl)C(=O)N1c1ccc(Cl)cc1 [Compound 37],–,–,0.59 µg/mL,>16.9,> 10 µg/mL,–,–
CC(C)(C)N1C(=O)C=CC1=O [N-tert-butyl-maleimide],13.7 ± 2.3 µg/mL,–,–,–,–,–,–
O=C1C=CC(=O)N1c1cc(F)c(F)c(F)c1 [Compound 15],–,> 10 µg/mL,0.21 µg/mL,–,–,153.4 to 165.6 °C,–
Cc1c(Cl)cccc1N1C(=O)C(Cl)=C(Cl)C1=O [Compound 40],–,–,0.13 µg/mL,>76.9,> 10 µg/mL,162.3 to 164.1 °C,–
O=C1C(Cl)=C(Cl)C(=O)N1c1ccc(F)cc1 [Compound 36],–,> 10 µg/mL,0.36 µg/mL,>27.8,–,–,–
CCCCCN1C(=O)C(Cl)=C(Cl)C1=O [Compound 29],–,–,0.65 µg/mL,>15.4,> 10 µg/mL,–,–
CC1=CC(=O)N(c2c(C)cccc2C)C1=O [Compound 23],–,> 10 µg/mL,13.2 µg/mL,>0.8,–,190.8 to 192 °C,–
CCCCCN1C(=O)C=C(C)C1=O [Compound 18],–,7.64 µg/mL,0.58 µg/mL,13.2,–,–,–
CC1=CC(=O)N(c2cc(Cl)cc(Cl)c2)C1=O [Compound 25],–,–,0.34 µg/mL,2.4,0.8 µg/mL,170.8 to 173.2 °C,–
CCCCCN1C(=O)C=CC1=O [Compound 2],–,> 10 µg/mL,0.36 µg/mL,>27.8,–,–,–
O=C1C=CC(=O)N1c1ccc(F)cc1 [Compound 11],–,> 10 µg/mL,0.32 µg/mL,>31.3,–,–,–
O=C1C=CC(=O)N1CCc1ccccc1 [Compound 7],–,4.13 µg/mL,0.1 µg/mL,41.3,–,–,–
Cc1cccc(C)c1N1C(=O)C=CC1=O [Compound 13],–,3.65 µg/mL,0.1 µg/mL,36.5,–,188.8 to 190.4 °C,–
O=C1C(Cl)=C(Cl)C(=O)N1CCc1ccccc1 [Compound 32],–,–,1.64 µg/mL,>6.1,> 10 µg/mL,–,–
O=C1C(Cl)=C(Cl)C(=O)N1c1cc(Cl)cc(Cl)c1 [Compound 43],–,–,0.99 µg/mL,>10.1,> 10 µg/mL,–,–
CC(C)CN1C(=O)C=CC1=O [Compound 16],–,> 10 µg/mL,< 0.0128 µg/mL,–,–,52.8 to 53.9 °C,10
